Source: patent US10941158B2, “Pyrazole ACC inhibitors and uses thereof” (Gilead Apollo, LLC, priority 2015, dated 2021)
Values after ≈ are worked out from the molar mass of the structure shown. Like-named read-outs stand apart in the source and are kept apart here.

How the values were obtained:
[1] = test system: C. krusei ATCC 6258; experiment: Anti-Fungal (Candida) Activity Assay, broth microtiter MIC; type: cell-based; settings: Pichia kudriavzevii, read-out: MIC C. krusei ATCC 6258
Procedure, shortened: (§1)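 Test compounds were dissolved in DMSO at 1 mg/mL (stock) and challenged against direct colony suspensions in RPMI 1640 with MOPS under CLSI M27-A3 broth microdilution. Growth was judged by eye relative to drug-free control after 48 h.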

[2] = test system: C. albicans ATCC 90028; experiment: as above; type: cell-based; settings: read-out: MIC C. albicans ATCC 90028
Procedure, shortened: as §1

[3] = test system: C. parapsilosis ATCC 22019; experiment: as above; type: cell-based; settings: Lodderomyces parapsilosis, read-out: MIC C. parapsilosis ATCC 22019
Procedure, shortened: as §1

[4] = test system: Rhizoctonia solani (Rs); experiment: Growth inhibition assay of fungal pathogens; type: cell-based; settings: 48 h, read-out: Concentration at 90% Inhibition Rs
Procedure, shortened: (§2)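 Percent growth inhibition was derived from 48 h OD600 and visual scores relative to 2% DMSO, with blank background subtraction. Fungi were grown from spores in 17% V8 liquid medium, R. solani from 1.5 mm plugs in ¼ PDB, with compound at final 50/10/2 or 2/0.4/0.08 ppm.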

[5] = test system: Phytophthora capsici (Pc); experiment: Growth inhibition assay of fungal pathogens; type: cell-based; settings: for IC90: Phytophthora capsici, read-out: Concentration at 90% Inhibition Pc
Procedure, shortened: (§3)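 Liquid-culture assay in which test compounds are applied at three final concentrations (50, 10, 2 ppm or 2, 0.4, 0.08 ppm). Inoculum levels follow 48 h growth curves for each fungus. Growth is monitored by OD600 and by eye, and the 48 h values give % inhibition against DMSO.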

[6] = test system: Fusarium virguliforme (Fv); experiment: Growth inhibition assay of fungal pathogens; type: cell-based; settings: 48 h
Procedure, shortened: as §3

[7] = test system: Collectotrichum graminicola (Cg); experiment: Growth inhibition assay of fungal pathogens; type: cell-based; settings: 48 h, read-out: Concentration at 90% Inhibition Cg
Procedure, shortened: as §3

[8] = test system: Botrtyis cinerea (Bc); experiment: Growth inhibition assay of fungal pathogens; type: cell-based; settings: 48 h, read-out: Concentration at 90% Inhibition Bc
Procedure, shortened: as §2

[9] = test system: Diplodia maydis (Dm); experiment: Growth inhibition assay of fungal pathogens; type: cell-based; settings: Stenocarpella maydis, 48 h, read-out: Concentration at 90% Inhibition Dm
Procedure, shortened: as §2

[10] = test system: Septoria tritici (St); experiment: Growth inhibition assay of fungal pathogens; type: cell-based; settings: for IC90: Zymoseptoria tritici, read-out: Concentration at 90% Inhibition St
Procedure, shortened: as §3

[11] = test system: Fusarium moniliforme (Fm); experiment: Growth inhibition assay of fungal pathogens; type: cell-based; settings: for IC90: Fusarium verticillioides, 48 h, read-out: Concentration at 90% Inhibition Fm
Procedure, shortened: as §2

[12] = target: human (hACC2) ACC2 (Homo sapiens, UniProt O00763); experiment: In vitro Acetyl-CoA Carboxylase (ACC) inhibition assay (ADP-Glo), hACC2; type: biochemical
Protocol: The detailed procedure is as follows. […] 10 μL ADP glo reagent was added. […] 20 μL kinase detection reagent was added.
“NA” stands for “not assayed.”

[13] = read-out: Concentration at 90% Inhibition Fv, Table 4b, 48 hours
[14] = ATCC6258, 3 replicates, MIC recorded at 48 h
[15] = ATCC90028, 3 replicates, MIC recorded at 48 h
[16] = ATCC22019, 3 replicates, MIC recorded at 48 h
[17] = Table 4a, 48 hours, read-out: Concentration at 90% Inhibition Fv
[18] = Table 4b, 48 hours, read-out: Concentration at 90% Inhibition Fv

Sequence of human (hACC2) ACC2 (O00763 whole entry): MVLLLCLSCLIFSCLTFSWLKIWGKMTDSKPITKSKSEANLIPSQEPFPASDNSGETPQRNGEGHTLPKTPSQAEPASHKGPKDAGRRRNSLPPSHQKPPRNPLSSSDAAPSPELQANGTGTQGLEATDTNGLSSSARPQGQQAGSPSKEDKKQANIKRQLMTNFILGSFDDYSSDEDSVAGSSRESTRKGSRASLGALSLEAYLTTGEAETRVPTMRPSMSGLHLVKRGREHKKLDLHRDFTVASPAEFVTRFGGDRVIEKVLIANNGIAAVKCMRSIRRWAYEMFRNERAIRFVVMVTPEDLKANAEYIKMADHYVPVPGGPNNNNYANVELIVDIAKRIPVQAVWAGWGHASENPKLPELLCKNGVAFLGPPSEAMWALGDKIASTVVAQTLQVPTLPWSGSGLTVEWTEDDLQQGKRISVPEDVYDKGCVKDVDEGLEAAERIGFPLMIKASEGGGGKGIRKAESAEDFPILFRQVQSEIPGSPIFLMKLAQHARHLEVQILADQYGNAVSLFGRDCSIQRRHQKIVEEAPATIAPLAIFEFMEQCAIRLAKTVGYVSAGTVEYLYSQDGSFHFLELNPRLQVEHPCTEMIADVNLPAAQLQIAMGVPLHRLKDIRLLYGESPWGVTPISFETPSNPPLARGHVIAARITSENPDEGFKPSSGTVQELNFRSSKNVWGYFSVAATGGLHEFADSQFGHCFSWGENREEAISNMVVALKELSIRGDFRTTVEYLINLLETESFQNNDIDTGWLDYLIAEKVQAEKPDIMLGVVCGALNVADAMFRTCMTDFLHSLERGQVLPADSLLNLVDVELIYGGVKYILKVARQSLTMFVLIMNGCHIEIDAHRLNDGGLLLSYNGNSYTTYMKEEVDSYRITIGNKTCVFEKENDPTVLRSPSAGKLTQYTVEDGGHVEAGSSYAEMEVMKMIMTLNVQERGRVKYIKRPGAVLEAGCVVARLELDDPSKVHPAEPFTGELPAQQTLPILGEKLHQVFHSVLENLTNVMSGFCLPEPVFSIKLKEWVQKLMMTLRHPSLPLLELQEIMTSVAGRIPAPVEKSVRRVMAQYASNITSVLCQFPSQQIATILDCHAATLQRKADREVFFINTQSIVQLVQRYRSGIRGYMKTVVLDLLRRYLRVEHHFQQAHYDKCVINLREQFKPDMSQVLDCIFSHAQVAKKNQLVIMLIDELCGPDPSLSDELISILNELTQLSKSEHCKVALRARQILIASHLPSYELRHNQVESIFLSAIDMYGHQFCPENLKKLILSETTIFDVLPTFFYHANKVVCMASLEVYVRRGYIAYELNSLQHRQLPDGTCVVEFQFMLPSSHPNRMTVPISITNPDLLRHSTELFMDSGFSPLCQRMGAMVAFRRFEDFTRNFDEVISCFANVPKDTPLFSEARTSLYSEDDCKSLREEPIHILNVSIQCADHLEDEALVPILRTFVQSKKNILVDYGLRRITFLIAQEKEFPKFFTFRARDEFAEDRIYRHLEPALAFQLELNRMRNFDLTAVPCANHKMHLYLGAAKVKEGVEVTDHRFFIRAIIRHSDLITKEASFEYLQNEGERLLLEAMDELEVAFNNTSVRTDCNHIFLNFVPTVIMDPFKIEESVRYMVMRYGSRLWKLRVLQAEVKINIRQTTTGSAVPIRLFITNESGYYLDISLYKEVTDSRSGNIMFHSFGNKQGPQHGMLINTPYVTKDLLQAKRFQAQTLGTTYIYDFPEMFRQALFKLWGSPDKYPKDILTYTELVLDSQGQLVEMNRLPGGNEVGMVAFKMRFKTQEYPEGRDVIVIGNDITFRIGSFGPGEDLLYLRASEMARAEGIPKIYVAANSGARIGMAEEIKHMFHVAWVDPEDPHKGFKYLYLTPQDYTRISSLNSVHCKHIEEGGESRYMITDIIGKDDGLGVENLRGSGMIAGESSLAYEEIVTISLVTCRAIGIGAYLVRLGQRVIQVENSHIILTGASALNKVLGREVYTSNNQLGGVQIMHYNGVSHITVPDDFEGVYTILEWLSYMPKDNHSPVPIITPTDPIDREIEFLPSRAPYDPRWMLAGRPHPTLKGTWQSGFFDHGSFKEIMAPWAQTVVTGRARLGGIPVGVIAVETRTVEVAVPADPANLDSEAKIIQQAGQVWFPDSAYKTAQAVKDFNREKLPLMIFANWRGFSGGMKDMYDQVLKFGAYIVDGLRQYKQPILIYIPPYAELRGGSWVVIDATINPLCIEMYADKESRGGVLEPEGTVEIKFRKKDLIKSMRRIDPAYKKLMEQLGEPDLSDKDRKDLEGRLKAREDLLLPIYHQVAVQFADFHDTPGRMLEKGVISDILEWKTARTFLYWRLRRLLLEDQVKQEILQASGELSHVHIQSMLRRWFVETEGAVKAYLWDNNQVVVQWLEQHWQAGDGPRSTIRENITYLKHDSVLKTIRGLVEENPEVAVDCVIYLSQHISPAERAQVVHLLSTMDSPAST

MIC [1, 14] [µg/mL] | MIC [2, 15] [µg/mL] | MIC [3, 16] [µg/mL] | SMILES | MIC ([1]; ATCC6258, 48 h) [µg/mL] | MIC ([2]; ATCC90028, 48 h) [µg/mL] | MIC ([3]; ATCC22019, 48 h) [µg/mL] | IC90 ([4]; Table 4a) [µg/mL] | IC90 ([4]; Table 4b) [µg/mL] | IC90 ([5]; 48 h, Table 4b) [µg/mL] | IC90 [6, 13] [µg/mL] | IC90 ([7]; Table 4a) [µg/mL] | IC90 ([7]; Table 4b) [µg/mL] | IC90 ([8]; Table 4a) [µg/mL] | IC90 ([8]; Table 4b) [µg/mL] | IC90 ([9]; Table 4a) [µg/mL] | IC90 ([9]; Table 4b) [µg/mL] | IC90 ([10]; 48 h, Table 4b) [µg/mL] | IC90 [11] [µg/mL] | IC50 [12] [µM] | IC90 ([5]; Table 4a, 48 hours) [µg/mL] | other results
 |  |  | COc1ccccc1[C@H](Cn1c(=O)n(C(C)(C)C(=O)N2CCCCC2)c(=O)c2c(C)c(-n3cccn3)sc21)OCC(C)C [Compound I-23, (R)-1-(2-isobutoxy-2-(2-methoxyphenyl)ethyl)-5-methyl-3-(2-methyl-1-oxo-1-(piperidin-1-yl)propan-2-yl)-6-(1H-pyrazol-1-yl)thieno[2,3-d]pyrimidine-2,4(1H,3H)-dione] | 0.25 to 1 (≈ 0.411 to 1.65 µM) | 0.25 to 1 (≈ 0.411 to 1.65 µM) | 1.1 to 2 (≈ 1.81 to 3.29 µM) | > 50 | > 50 | > 50 | > 50 | > 50 | 10 (≈ 16.5 µM) | 2 (≈ 3.29 µM) | 2 (≈ 3.29 µM) | 10 (≈ 16.5 µM) | 2 (≈ 3.29 µM) | > 50 | 0.4 (≈ 0.658 µM) | 0.01 to 0.04 |  | IC90 ([5]; 48 h, Table 4a): > 50 µg/mL; IC90 ([6]; read-out: Concentration at 90% Inhibition Fv, Table 4a, 48 hours): > 50 µg/mL; IC90 ([10]; 48 h, Table 4a): > 50 µg/mL; Concentration at 90% Inhibition Fm ([11]; Table 4b, 48 hours): A (“A” provided a compound concentration of 0.4 ppm at 90% inhibition of fungal pathogens)
0.25 to 1 (≈ 0.418 to 1.67 µM) | 1.1 to 2 (≈ 1.84 to 3.35 µM) | 1.1 to 2 (≈ 1.84 to 3.35 µM) | COc1ccc(F)cc1[C@H](Cn1c(=O)n(C(C)(C)C(N)=O)c(=O)c2c(C)c(-n3cccn3)sc21)OC1CCC(=O)CC1 [Compound I-25, (R)-2-(1-(2-(5-fluoro-2-methoxyphenyl)-2-((4-oxocyclo-hexyl)oxy)ethyl)-5-methyl-2,4-dioxo-6-(1H-pyrazol-1-yl)-1,4-dihydro-thieno[2,3-d]pyrimidin-3(2H)-yl)-2-methylpropanamide] |  |  |  | > 50 | > 50 |  |  | > 50 | > 50 | > 50 | 10 (≈ 16.7 µM) | > 50 | > 50 |  |  | 0.003 to 0.01 | > 50 | Concentration at 90% Inhibition Pc ([5]; Table 4b, 48 hours): D (“D” provided a compound concentration of >50 ppm at 90% inhibition of fungal pathogens); IC90 [6, 17]: > 50 µg/mL; IC90 [6, 18]: > 50 µg/mL; Concentration at 90% Inhibition St ([10]; Table 4b, 48 hours): D (“D” provided a compound concentration of >50 ppm at 90% inhibition of fungal pathogens); IC90 ([10]; Table 4a, 48 hours): > 50 µg/mL; IC90 ([11]; Table 4a, 48 hours): 10 µg/mL (≈ 16.7 µM); IC90 ([11]; Table 4b, 48 hours): 2 µg/mL (≈ 3.35 µM)
1.1 to 2 (≈ 1.69 to 3.07 µM) | 1.1 to 2 (≈ 1.69 to 3.07 µM) | 1.1 to 2 (≈ 1.69 to 3.07 µM) | COc1ccc(F)cc1[C@H](Cn1c(=O)n(C(C)(C)C(=O)N2CCCC2)c(=O)c2c(C)c(-n3cccn3)sc21)OC1CCC(=O)CC1 [Compound I-27, (R)-1-(2-(5-fluoro-2-methoxyphenyl)-2-((4-oxocyclohexyl)oxy)ethyl)-5-methyl-3-(2-methyl-1-oxo-1-(pyrrolidin-1-yl)propan-2-yl)-6-(1H-pyrazol-1-yl)thieno[2,3-d]pyrimidine-2,4(1H,3H)-dione] |  |  |  | 2 (≈ 3.07 µM) | 2 (≈ 3.07 µM) |  |  | 10 (≈ 15.3 µM) | 2 (≈ 3.07 µM) | 2 (≈ 3.07 µM) | 2 (≈ 3.07 µM) | > 50 | 10 (≈ 15.3 µM) |  |  | 0.01 to 0.04 | > 50 | Concentration at 90% Inhibition Pc ([5]; Table 4b, 48 hours): D (“D” provided a compound concentration of >50 ppm at 90% inhibition of fungal pathogens); IC90 [6, 17]: 10 µg/mL (≈ 15.3 µM); IC90 [6, 18]: 2 µg/mL (≈ 3.07 µM); Concentration at 90% Inhibition St ([10]; Table 4b, 48 hours): D (“D” provided a compound concentration of >50 ppm at 90% inhibition of fungal pathogens); IC90 ([10]; Table 4a, 48 hours): > 50 µg/mL; IC90 ([11]; Table 4a, 48 hours): 0.4 µg/mL (≈ 0.614 µM); IC90 ([11]; Table 4b, 48 hours): 0.4 µg/mL (≈ 0.614 µM)
 |  |  | COc1ccc(F)cc1[C@@H](O)Cn1c(=O)n(C(C)(C)C(=O)NC(C)C)c(=O)c2c(C)c(-n3cccn3)sc21 [Compound I-86, (R)-2-(1-(2-(5-fluoro-2-methoxyphenyl)-2-hydroxyethyl)-5-methyl-2,4-dioxo-6-(1H-pyrazol-1-yl)-1,4-dihydrothieno[2,3-d]pyrimidin-3(2H)-yl)-N-isopropyl-2-methylpropanamide] | 1.1 to 2 (≈ 2.02 to 3.68 µM) | 1.1 to 2 (≈ 2.02 to 3.68 µM) | 0.25 to 1 (≈ 0.46 to 1.84 µM) |  | 0.4 (≈ 0.736 µM) | > 50 | 0.4 (≈ 0.736 µM) |  | 2 (≈ 3.68 µM) |  | 2 (≈ 3.68 µM) |  | 10 (≈ 18.4 µM) | > 50 | 0.4 (≈ 0.736 µM) | 0.003 to 0.01 |  | 
